Paper PMC8268238, “Seleno-Functionalization of Quercetin Improves the Non-Covalent Inhibition of M^pro and Its Antiviral Activity in Cells against SARS-CoV-2” (International Journal of Molecular Sciences, 2021)
Where two headings read alike, the source gives them in different places.

How the values were obtained:
SARS-CoV-2 M^pro [1] = target: T1, SARS-CoV-2 M^pro (Severe acute respiratory syndrome coronavirus 2, UniProt P0DTD1); assay: SARS-CoV-2 M^pro inhibition assay (FRET substrate); assay type: biochemical; settings: for IC50 / Ki: 0.2 μM enzyme, 20 μM substrate, pH 7, DMSO 2.5%; for IC50: equivalent to Ki^app; for Ki: intrinsic inhibition constant; for anti-M^pro inhibitory activity (in words): first-line screening at 100 μM
Procedure: A continuous assay based on Förster resonance energy transfer (FRET) to measure in vitro the catalytic activity of M^pro was implemented by using the substrate (Dabcyl)KTSAVLQSGFRKME(Edans)-NH2 (Biosyntan GmbH, Berlin, Germany) The enzymatic reaction was initiated by adding substrate at 20 μM (final concentration) to the enzyme at 0.2 μM (final concentration) in a final volume of 100 μL. The reaction buffer was sodium phosphate 50 mM, pH 7, NaCl 150 mM, and DMSO 2.5%. Fluorescence emission was measured in a FluoDia T70 microplate reader (Photon Technology International, Birmingham, NJ, USA) for 20 min (excitation wavelength, 380 nm; emission wavelength, 500 nm). The initial slope of the time evolution curve of the fluorescence emission signal provided a direct quantification of the enzymatic activity.
The in vitro inhibition potency of the compounds against M^pro was assessed through the estimation of the inhibition constant, Ki, and the half-maximal inhibitory concentration, IC50, from experimental inhibition curves. Inhibition curves were obtained by measuring the enzyme activity (at fixed 0.2 μM enzyme concentration and fixed 20 μM substrate concentration) as a function of compound concentration (serial 2-fold dilution from 125 µM to 0 μM), maintaining the percentage of DMSO (2.5%) constant. The enzymatic activity was quantitated as the initial slope of the substrate fluorescence emission time evolution curve, and was plotted as a function of compound concentration. The ratio between the activity (slope) in the presence and absence of the compound provides the residual percentage of activity at a given compound concentration. Nonlinear regression analysis employing a simple inhibition model (considering inhibitor depletion due to enzyme binding) allowed us to estimate the apparent inhibition constant, Ki^app, for each compound according to Equation (1):(1) [EI]=1/2([I]T+[E]T+Kiapp−([I]T+[E]T+Kiapp)^2−4[E]T[I]T)[I]=[I]T−[EI]=1/2([I]T−[E]T−Kiapp+([I]T+[E]T+Kiapp)^2−4[E]T[I]T)v([I])/v([I]=0)=1−[EI]/[E]T=1/1+[I]/Kiapp, where [EI] is the concentration of the enzyme–inhibitor complex, [E]T and [I]T are the total concentrations of the enzyme and the inhibitor, Ki^app is the apparent inhibition constant for the inhibitors (quercetin and derivatives), [I] is the concentration of the free inhibitor, and v is the initial slope of the enzymatic activity trace at a given (free) inhibitor concentration [I] (or total inhibitor concentration [I]T). No approximation for the free inhibitor concentration (e.g., assuming to be equal to the total inhibitor concentration) was made, thus having general validity for any total enzyme and inhibitor concentration and any value of the inhibition constant (even for tight-binding inhibitors). In addition, if the inhibitor acts through a purely competitive mechanism, the previous equation can be substituted by Equation (2):(2) v([I])/v([I]=0)=1/1+[I]/Kiapp=1/1+[I]/Ki(1+[S]/Km), where Ki is the intrinsic (i.e., substrate concentration-independent) inhibition constant, Km is the Michaelis–Menten constant for the enzyme–substrate interaction, and [S] is the substrate concentration. Because Km and [S] are known, the intrinsic inhibition constant can be determined. Furthermore, approximating the free compound concentration by the total compound concentration and neglecting ligand depletion, the Ki^app in Equation (2) is equivalent to the IC50, as reported in Table 3. However, it should be emphasized that the IC50 is an assay-dependent inhibition potency index (among other parameters, it depends on the enzyme and substrate concentrations, as well as on the Km); thus, the intrinsic inhibition constant is a better inhibition potency index. Uncertainties have been reported as 95% profile likelihood asymmetric confidence intervals, as especially recommended for equilibrium constants (i.e., binding association/dissociation constants and inhibition constants).

SARS-CoV-2 [2] = assay: Inhibition of SARS-CoV-2 replication in Vero cells by RT-qPCR; assay type: cell-based
SARS-CoV-2 [3] = settings: for Inhibition of the virus-caused cytopathic effect (CPE) / toxicity in the cellular infection model (in words): Vero cells; for Inhibition of the virus-caused cytopathic effect (CPE): 2 days; for SARS-CoV-2-related CPE reduction (in words): tested at 100, 75, 50, 25 and 10 µM, judged at non-toxic concentrations; for toxicity in the cellular infection model (in words) / precipitation in the medium (in words): 100-10 µM; for precipitation in the medium (in words): culture medium
Vero cells = assay: XTT cell viability assay; assay type: cell-based, Cercopithecus aethiops; settings: quercetin 500–100 µM; 2d 100–10 µM; Figure S2
Procedure: Cell viability was evaluated using the XTT Cell Viability Assay kit (Biological Industries, Cromwell, CT, USA) according to the manufacturer’s protocol. Vero, A549ACE2+, CRFK, HRT-18, LLC-MK2, and HSF cells were cultured on 96-well plates. Cells were incubated with ACF for 24 h at 37 °C in an atmosphere containing 5% CO2. After incubation, the medium was discarded and 100 µL of fresh medium was added to each well. Then, 25 µL of the activated 2,3-bis-(2-methoxy-4-nitro-5-sulphenyl)-(2H)-tetrazolium-5-carboxanilide (XTT) solution was added and samples were incubated for 2 h at 37 °C. The absorbance (λ = 450 nm) was measured using a Spectra MAX 250 spectrophotometer (Molecular Devices, San Jose, CA, USA). The obtained results were normalized to the control samples, where cell viability was set to 100%.

SARS-CoV-2 M^pro [4] = target: T1, SARS-CoV-2 M^pro; assay: Reversibility test of M^pro interaction (SEC/dialysis, then activity and near-UV CD); assay type: biochemical; settings: M^pro 24 μM incubated with compound 200 μM, 30 min, 25 °C, then SEC or dialysis

| SMILES | melting point [°C] | IC50 (SARS-CoV-2 M^pro [1]) [µM] | Ki (SARS-CoV-2 M^pro [1]) [µM] | Inhibition of the virus-caused cytopathic effect (CPE) (SARS-CoV-2 [3]; 10 µM) | Inhibition of the virus-caused cytopathic effect (CPE) (SARS-CoV-2 [3]; 25 µM) | Inhibition of the virus-caused cytopathic effect (CPE) (SARS-CoV-2 [3]; 75 µM) | Inhibition of the virus-caused cytopathic effect (CPE) (SARS-CoV-2 [3]; 100 µM) | also measured |
| --- | --- | --- | --- | --- | --- | --- | --- | --- |
| Cc1cc(C)c([Se]CCOc2cc(O)c3c(=O)cc(-c4ccccc4)oc3c2)c(C)c1 | 135.7 to 138.4 |  |  |  |  |  |  |  |
| Cc1ccccc1[Se]CCOc1cc(O)c2c(=O)cc(-c3ccccc3)oc2c1 | 123.9 to 127.4 |  |  |  |  |  |  |  |
| O=c1cc(-c2ccccc2)oc2cc(OCC[Se]c3ccc(F)cc3)cc(O)c12 | 171.1 to 173.7 |  |  |  |  |  |  |  |
| O=c1cc(-c2ccccc2)oc2cc(OCC[Se]c3cccc(C(F)(F)F)c3)cc(O)c12 | 154.1 to 157.7 |  |  |  |  |  |  |  |
| COc1ccccc1[Se]CCOc1cc(O)c2c(=O)cc(-c3ccccc3)oc2c1 | 132.9 to 135.6 |  |  |  |  |  |  |  |
| O=c1cc(-c2ccccc2)oc2cc(OCC[Se]Cc3ccccc3)cc(O)c12 | 115.4 to 118.2 |  |  |  |  |  |  |  |
| O=c1c(O)c(-c2ccc(O)c(O)c2)oc2c([Se]c3ccccc3)c(O)cc(O)c12 [2a, 2-(3,4-Dihydroxyphenyl)-3,5,7-trihydroxy-8-(phenylselanyl)-4H-chromen-4-one] | 211 to 213 | 5.1 | 1.8 | - | - | tox | tox | inhibition of SARS-CoV-2 replication by RT-qPCR (in words) (SARS-CoV-2 [2]; Vero cells, Figure S1): did not indicate any inhibition; Inhibition of the virus-caused cytopathic effect (CPE) (SARS-CoV-2 [3]; 50 µM): +; SARS-CoV-2-related CPE reduction (in words) (SARS-CoV-2 [3]): inhibited the development of the CPE |
| CCCCCCCCCC[Se]c1c(O)cc(O)c2c(=O)c(O)c(-c3ccc(O)c(O)c3)oc12 [2b, 2-(3,4-Dihydroxyphenyl)-3,5,7-trihydroxy-8-(decylselenyl)-4H-chromen-4-one] | 155 to 159 | > 100 | > 100 |  |  |  |  | anti-M^pro inhibitory activity (in words) (SARS-CoV-2 M^pro [1]): devoid of any noticeable anti-M^pro inhibitory activity |
| CCCC[Se]c1c(O)cc(O)c2c(=O)c(O)c(-c3ccc(O)c(O)c3)oc12 [2c, 2-(3,4-Dihydroxyphenyl)-3,5,7-trihydroxy-8-(butylselenyl)-4H-chromen-4-one] | 159 to 163 | 24 | 8.6 |  |  |  |  |  |
| COc1ccc([Se]c2c(O)cc(O)c3c(=O)c(O)c(-c4ccc(O)c(O)c4)oc23)cc1 [2e, 2-(3,4-Dihydroxyphenyl)-3,5,7-trihydroxy-8-((4-methoxyphenyl)selanyl)-4H-chromen-4-one] | 194 to 197 | 3 | 1.1 | - | - | tox | tox | Inhibition of the virus-caused cytopathic effect (CPE) (SARS-CoV-2 [3]; 50 µM): tox/- |
| O=c1cc(-c2ccccc2)oc2cc(OCC[Se]c3ccccc3)cc(O)c12 [7a, 5-Hydroxy-2-phenyl-7-(2-(phenylselanyl)ethoxy)-4H-chromen-4-one] | 155 to 156 | > 100 | > 100 |  |  |  |  |  |
| O=c1c(O)c(-c2ccc(O)c(O)c2)oc2cc(O)cc(O)c12 [Quercetin 1, quercetin] |  |  |  | - | - | - | - | IC50 (SARS-CoV-2 [2]; Severe acute respiratory syndrome coronavirus 2, Vero, 48 h, infected Vero cells, 2 days, nonlinear regression, read-out: IC50 of SARS-CoV-2 replication (RT-qPCR)): 192 µM; logIC50 of SARS-CoV-2 replication (RT-qPCR) (SARS-CoV-2 [2]; log of concentration in µM, Figure S4): 2,284; cytotoxicity on Vero cells (in words) (Vero cells): none of the tested concentrations exhibited cytotoxicity; reversibility of the interaction with M^pro (SARS-CoV-2 M^pro [4]; listed as 1): reversible interaction; reversibility of the interaction with M^pro (SARS-CoV-2 M^pro [4]; listed as quercetin): reversible; Inhibition of the virus-caused cytopathic effect (CPE) (SARS-CoV-2 [3]; 50 µM): -; Inhibition of the virus-caused cytopathic effect (CPE) (SARS-CoV-2 [3]; 200 µM): +; Inhibition of the virus-caused cytopathic effect (CPE) (SARS-CoV-2 [3]; 250 µM): +; Inhibition of the virus-caused cytopathic effect (CPE) (SARS-CoV-2 [3]; 300 µM): +; Inhibition of the virus-caused cytopathic effect (CPE) (SARS-CoV-2 [3]; 400 µM): +; Inhibition of the virus-caused cytopathic effect (CPE) (SARS-CoV-2 [3]; 500 µM): + |
| O=c1c(O)c(-c2ccc(O)c(O)c2)oc2c([Se]c3ccccc3)c(O)c([Se]c3ccccc3)c(O)c12 [compound 3, 2-(3,4-Dihydroxyphenyl)-3,5,7-trihydroxy-6,8-bis(phenylselanyl)-4H-chromen-4-one] | 206 to 210 | 13 | 4.6 | - | - | tox | tox | Inhibition of the virus-caused cytopathic effect (CPE) (SARS-CoV-2 [3]; 50 µM): tox/- |
| O=c1cc(-c2ccccc2)oc2c([Se]c3ccccc3)c(O)c([Se]c3ccccc3)c(O)c12 [compound 6, 5,7-Dihydroxy-2-phenyl-6,8-bis(phenylselanyl)-4H-chromen-4-one] | 188.7 to 190.6 | > 100 | > 100 |  |  |  |  | anti-M^pro inhibitory activity (in words) (SARS-CoV-2 M^pro [1]): devoid of any noticeable anti-M^pro inhibitory activity |
| O=c1cc(-c2ccccc2)oc2cc(OCC[Te]c3ccccc3)cc(O)c12 [compound 8, 5-Hydroxy-2-phenyl-7-[2-(phenyltellanyl)ethoxy]-4H-chromen-4-one] | 128 to 129 | 3.3 | 1.1 |  |  | prec/tox | prec/tox | toxicity in the cellular infection model (in words) (SARS-CoV-2 [3]): toxic; precipitation in the medium (in words) (SARS-CoV-2 [3]): precipitated; SARS-CoV-2-related CPE reduction (in words) (SARS-CoV-2 [3]): No CPE reduction |
| O=c1cc(-c2ccccc2)oc2cc(OCC[Te]c3ccc(Cl)cc3)cc(O)c12 [compound 9, 7-{2-[(4-Chlorophenyl)tellanyl]ethoxy}-5-hydroxy-2-phenyl-4H-chromen-4-one] | 140.3 to 143 | 2.2 | 0.77 | - | - | prec/- | prec/tox | toxicity in the cellular infection model (in words) (SARS-CoV-2 [3]): toxic; precipitation in the medium (in words) (SARS-CoV-2 [3]): precipitated; SARS-CoV-2-related CPE reduction (in words) (SARS-CoV-2 [3]): No CPE reduction |
